Values joined by “and” are separate entries in the source; they are usually repeats but may differ in a detail not shown here. Equal entries are not always repeated.
biological target: Transient receptor potential cation channel subfamily V member 1 (Homo sapiens, UniProt Q8NER1); assay: Antagonist activity at human TRPV1 assessed as inhibition of capsaicin-induced calcium influx in HEK293 cells; type: functional, cell-based
Sequence (Q8NER1 whole entry): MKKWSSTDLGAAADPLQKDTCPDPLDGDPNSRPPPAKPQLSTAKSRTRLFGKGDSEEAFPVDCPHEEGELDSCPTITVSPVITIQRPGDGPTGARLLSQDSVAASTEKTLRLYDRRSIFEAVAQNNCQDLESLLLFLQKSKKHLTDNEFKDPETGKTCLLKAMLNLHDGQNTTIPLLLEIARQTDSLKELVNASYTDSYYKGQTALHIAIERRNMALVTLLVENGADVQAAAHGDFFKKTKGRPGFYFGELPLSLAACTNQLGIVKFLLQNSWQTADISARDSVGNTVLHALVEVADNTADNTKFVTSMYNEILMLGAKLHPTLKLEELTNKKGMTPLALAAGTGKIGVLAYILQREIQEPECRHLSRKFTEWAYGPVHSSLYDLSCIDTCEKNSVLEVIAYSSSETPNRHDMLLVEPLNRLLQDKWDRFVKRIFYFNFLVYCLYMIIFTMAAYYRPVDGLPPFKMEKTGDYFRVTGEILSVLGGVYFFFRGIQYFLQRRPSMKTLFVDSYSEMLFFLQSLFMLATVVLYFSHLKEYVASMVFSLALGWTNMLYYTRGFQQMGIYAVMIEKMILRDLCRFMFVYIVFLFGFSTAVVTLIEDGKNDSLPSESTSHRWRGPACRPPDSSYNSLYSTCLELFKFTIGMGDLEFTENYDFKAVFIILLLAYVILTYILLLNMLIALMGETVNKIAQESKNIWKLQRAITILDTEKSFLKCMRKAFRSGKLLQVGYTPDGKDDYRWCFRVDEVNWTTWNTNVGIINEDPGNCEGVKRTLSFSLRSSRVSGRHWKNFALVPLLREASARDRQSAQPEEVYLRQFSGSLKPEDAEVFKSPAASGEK

IC50	Structure (SMILES)
> 10000 nM	COc1ccc2nccc(CC(C)NC(=O)c3ccc(OC(F)(F)F)cc3)c2c1 (stereo not drawn)
740 nM	CC(Cc1ccnc2ccc(O)cc12)NC(=O)c1ccc(OC(F)(F)F)cc1 (stereo not drawn)
> 10000 nM	CC(C)(C)c1ccc(CC(=O)c2ccc(C(F)(F)F)cc2)cc1
> 10000 nM	CN(C(=O)c1ccc(OC(F)(F)F)cc1)c1ccc(C(C)(C)C)cc1
> 10000 nM	O=C(Nc1ccc(C(F)(F)F)cc1)c1ccc(I)cc1
> 10000 nM	CC(C)(C)c1ccc(-n2nnc(-c3ccc(C(F)(F)F)cc3)n2)cc1
> 10000 nM	CC(C)(C)c1ccc(-c2cc3cc(C(C)(C)C)ccc3[nH]2)cc1
477 nM	CC(C)(C)c1ccc2[nH]c(-c3ccc(OC(F)(F)C(F)F)cc3)nc2c1
1420 nM	CC(C)(C)c1ccc(-c2nc3cc(OC(F)(F)F)ccc3[nH]2)cc1
7350 nM	O=C(NCCc1c[nH]c2ccccc12)c1ccc(OC(F)(F)F)cc1
> 10000 nM	Cn1cc(CCNC(=O)c2ccc(C(F)(F)F)cc2)c2ccccc21
1310 nM	COc1ccc2[nH]cc(CCNC(=O)c3ccc(OC(F)(F)F)cc3)c2c1
2620 nM	O=C(NCCc1c[nH]c2ccc(F)cc12)c1ccc(OC(F)(F)F)cc1
> 10000 nM and 1930 nM	O=C(NCCc1cccc(Cl)c1)c1ccc(OC(F)(F)F)cc1
1640 nM	COc1ccc2[nH]cc(CCNC(=O)c3ccc(OC(F)(F)C(F)F)cc3)c2c1
1730 nM	O=C(NCCc1c[nH]c2ccc(O)cc12)c1ccc(OC(F)(F)F)cc1
205 nM	O=C(NCCc1c(Cl)cccc1Cl)c1ccc(OC(F)(F)F)cc1
2560 nM	O=C(NCCc1ccc(Cl)cc1Cl)c1ccc(OC(F)(F)F)cc1
3700 nM	O=C(NCCc1ccc(Cl)c(Cl)c1)c1ccc(OC(F)(F)F)cc1
3490 nM	O=C(NCCc1ccccc1F)c1ccc(OC(F)(F)F)cc1
6000 nM	FC(F)(F)c1ccc(-c2ncc(-c3ccc(Br)cc3)[nH]2)cc1

IC50	Structure (SMILES)
380 nM	FC(F)C(F)(F)Oc1ccc(-c2nc3cc(Br)ccc3[nH]2)cc1
4230 nM	O=C(NCCc1c[nH]c2ccccc12)c1ccc(C(F)(F)F)cc1
490 nM	COc1ccc2c(c1)c1c(n2C)CCCC1CNC(=O)c1ccc(OC(F)(F)F)cc1 (stereo not drawn)
6700 nM	O=C(NCCc1cccc2ccncc12)c1ccc(OC(F)(F)F)cc1
3430 nM	COc1ccc2[nH]cc(CCNC(=O)c3ccc(CC(C)C)cc3)c2c1
> 10000 nM	COc1ccc2[nH]cc(CCNC(=O)c3ccc(-c4ccncc4)cc3)c2c1
> 10000 nM	COc1ccc2[nH]cc(CCNC(=O)c3ccc(C(F)(F)F)nc3)c2c1
1350 nM	O=C(NCCC1CCCc2ccc(O)cc21)c1ccc(OC(F)(F)F)cc1 (stereo not drawn)
2090 nM	COc1ccc2[nH]cc(CCNC(=O)c3ccc(C(F)(F)F)cc3)c2c1
253 nM	CC(C)(C)c1ccc(NC(=O)c2ccc(SC(F)(F)F)cc2)cc1
> 10000 nM	CC(C)(C)c1ccc(/C=C(\C#N)c2ccc(C(F)(F)F)cc2)cc1
1400 nM	COc1ccc2cccc(CCNC(=O)c3ccc(OC(F)(F)F)cc3)c2c1
3550 nM	COc1ccc2ccn(CCNC(=O)c3ccc(OC(F)(F)F)cc3)c2c1
> 10000 nM	CC(C)(C)c1ccc(NC(=O)c2ccc(OCC(F)(F)F)cc2)cc1
81 nM	CC(Cc1cccc2ccc(O)cc12)NC(=O)c1ccc(OC(F)(F)F)cc1 (stereo not drawn)
370 nM	COc1ccc2[nH]cc(CCNC(=O)c3ccc(-c4ccccc4)cc3)c2c1
> 10000 nM	CS(=O)(=O)c1ccc(C(=O)Nc2ccc(I)cc2)cc1
330 nM	O=C(Nc1ccc(I)cc1)c1ccc(C(F)(F)F)cc1
> 10000 nM	COc1ccc2c(c1)N(CCNC(=O)c1ccc(OC(F)(F)F)cc1)CCC2
1400 nM	CCC(c1ccccn1)c1c(Cl)c(Cl)cc2[nH]c(=O)c(=O)[nH]c12 (stereo not drawn)
4970 nM	CC(C)(C)C1CCC(c2nc3ccc(OC(F)(F)F)cc3[nH]2)CC1 (stereo not drawn)

Structure (SMILES)	IC50
CC(C)(C)c1ccc(C(N)C(=O)c2ccc(OC(F)(F)F)cc2)cc1 (stereo not drawn)	> 10000 nM

Reference: ChEMBL document CHEMBL1140826, “Synthesis of benzamide derivatives as TRPV1 antagonists” (Bioorg Med Chem Lett, 2008)
